{"source": "patent US6350731B1", "about": "“Platelet-derived growth factor analogues” (Trigen Limited, priority 1993, dated 2002)", "key": {"PDGF receptor": {"test_system": "PDGF receptor", "conditions": "cited from earlier work"}, "[1]": {"test_system": "corresponding immunising peptide", "assay": "ELISA titre of polyclonal antisera", "format": "binding", "conditions": "rabbits immunised with peptide linked to thyroglobulin, FIGS. 3A, 3B", "experimental": "(§1) Rabbits and mice were immunised with the peptides either in the free form mixed with Freund's adjuvant or conjugated to a carrier protein (Thyroglobulin or keyhole haemocyanin). Antisera were tested for antibody production to the peptides and PDGF using ELISA, dot blot assays and SDS-PAGE followed by Western blotting."}, "3T3 cells": {"test_system": "3T3 cells", "assay": "125I-PDGF-BB binding inhibition assay, 3T3 cells", "parameters": "species or system murine", "conditions": "at the concentrations tested, FIG. 2A", "experimental": "(§2) 3) Effect of PDGF Peptides on ^125I-PDGF-BB Binding to 3T3 Cells and Human Smooth Muscle Cells p PDGF-BB binding inhibition assay was performed as described by Engstrom et al. A murine fibroblast cell line 3T3.A31 and human aortic smooth muscle cells were used."}, "Swiss 3T3.A31": {"test_system": "Swiss 3T3.A31", "assay": "[3H]-thymidine uptake assay on fibroblast cells in culture", "format": "cell-based, murine", "conditions": "for stimulatory (mitogenic) effect, thymidine uptake: FIG. 1", "experimental": "2) Effect of PDGF Peptides on Fibroblast Cells in Culture The stimulatory or inhibitory effect of the peptides on the murine fibroblast cell line Swiss 3T3.A31 were investigated using the [^3H]-thymidine uptake assay as described by Raines & Ross. The peptides were tested for their ability to stimulate thymidine uptake in the cells in culture."}, "PDGF": {"target": "T1, PDGF (Homo sapiens, UniProt P01127)", "T1 construct": "both chains undergo proteolytic cleavage at the N-termini during maturation; The B chain is also processed at the C-terminal end", "T1 sequence (P01127 82-190 limits assumed)": "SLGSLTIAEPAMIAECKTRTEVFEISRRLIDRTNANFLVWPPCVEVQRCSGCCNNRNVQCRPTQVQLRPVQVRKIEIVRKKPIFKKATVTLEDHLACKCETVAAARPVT", "assay": "Western blot vs native PDGF", "format": "binding", "conditions": "polyclonal antisera", "experimental": "as §1"}, "PDGF β-receptors": {"target": "PDGF β-receptors (Homo sapiens, UniProt P09619)", "sequence (P09619 33-1106)": "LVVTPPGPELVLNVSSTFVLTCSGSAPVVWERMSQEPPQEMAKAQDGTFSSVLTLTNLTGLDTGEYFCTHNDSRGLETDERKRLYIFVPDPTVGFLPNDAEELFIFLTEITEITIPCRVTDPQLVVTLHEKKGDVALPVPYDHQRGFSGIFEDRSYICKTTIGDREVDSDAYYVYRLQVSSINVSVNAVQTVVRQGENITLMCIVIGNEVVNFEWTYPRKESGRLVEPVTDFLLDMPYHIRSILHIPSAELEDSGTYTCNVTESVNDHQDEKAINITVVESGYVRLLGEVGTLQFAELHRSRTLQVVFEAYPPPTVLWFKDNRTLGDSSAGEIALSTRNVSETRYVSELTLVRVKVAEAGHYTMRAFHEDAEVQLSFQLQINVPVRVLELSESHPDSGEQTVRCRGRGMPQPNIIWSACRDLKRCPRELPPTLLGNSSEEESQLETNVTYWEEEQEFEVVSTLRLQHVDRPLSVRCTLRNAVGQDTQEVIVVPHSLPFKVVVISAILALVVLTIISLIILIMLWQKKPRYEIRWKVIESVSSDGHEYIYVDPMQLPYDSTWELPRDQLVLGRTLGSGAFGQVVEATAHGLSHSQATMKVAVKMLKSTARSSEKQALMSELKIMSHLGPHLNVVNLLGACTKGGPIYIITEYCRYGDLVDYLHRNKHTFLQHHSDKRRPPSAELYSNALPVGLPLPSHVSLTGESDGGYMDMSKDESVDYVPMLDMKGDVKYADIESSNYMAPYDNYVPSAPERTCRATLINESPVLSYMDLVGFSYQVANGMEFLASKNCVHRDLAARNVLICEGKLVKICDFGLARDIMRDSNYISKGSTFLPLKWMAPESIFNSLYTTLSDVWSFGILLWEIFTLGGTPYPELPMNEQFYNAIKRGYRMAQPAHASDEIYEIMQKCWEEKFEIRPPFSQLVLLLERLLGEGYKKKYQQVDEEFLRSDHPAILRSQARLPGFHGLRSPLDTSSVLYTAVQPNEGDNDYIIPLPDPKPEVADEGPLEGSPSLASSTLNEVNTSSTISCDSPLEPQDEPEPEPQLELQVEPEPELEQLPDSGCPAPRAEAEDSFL", "conditions": "reference [6]; cited from earlier work"}, "[2]": {"test_system": "human smooth muscle cells", "assay": "125I-PDGF-BB binding inhibition assay, human smooth muscle cells (peptides)", "conditions": "FIG. 2B", "experimental": "as §2"}, "[3]": {"test_system": "smooth muscle cells of injured arteries", "conditions": "administration of PDGF, rat, reference [19]; cited from earlier work"}, "large bed sores": {"test_system": "large bed sores", "conditions": "locally applied, reference [31]; cited from earlier work"}}, "note": "Where no end group is shown, it is not given here. SMCC = N-(4-carboxy-cyclohexyl-methyl)-maleimide cross-linker", "data": [{"substance": "protamine sulphate", "values": [{"measurement": "inhibition of PDGF binding to its receptor", "setting": "PDGF receptor", "result": "inhibit PDGF binding to its receptor"}]}, {"substance": "Ac-^25I-S-R-R-L-I-D-R-T-N-A-N-F-L^38-C (Ac-ISRRLIDRTNANFLC) [GP4]", "values": [{"measurement": "antibodies to the corresponding immunising peptide by ELISA", "setting": "[1]", "result": "high titre antibodies"}, {"measurement": "inhibition of binding of radiolabelled PDGF-BB to 3T3 cells", "setting": "3T3 cells", "result": "modest inhibition"}, {"measurement": "stimulatory (mitogenic) effect, thymidine uptake", "setting": "Swiss 3T3.A31", "result": "highest stimulatory effect"}, {"measurement": "mitogenic effect upon reduction and alkylation of the C-terminal end cysteine residue", "setting": "Swiss 3T3.A31; reduced and alkylated peptide", "result": "almost completely abolished"}, {"measurement": "antibodies produced by the peptide reacted with native PDGF (Western immunoblot)", "setting": "PDGF", "result": "reacted with the native PDGF"}]}, {"substance": "ANFLVW—EIVRKKP [literature peptide corresponding to PDGF-B chain residues 35-40 and 78-83]", "values": [{"measurement": "antagonist for PDGF", "setting": "PDGF β-receptors", "result": "effective as an antagonist for PDGF"}]}, {"substance": "^73R-K-I-E-I-V-R-K-K-P-I-F-K-K-A-T-V^89 (RKIEIVRKKPIFKKATV) [GP21a]", "values": [{"measurement": "antibodies produced by the peptide reacted with native PDGF (Western immunoblot)", "setting": "PDGF", "result": "reacted with the native PDGF"}]}, {"substance": "polylysin", "values": [{"measurement": "inhibition of PDGF binding to its receptor", "setting": "PDGF receptor", "result": "inhibit PDGF binding to its receptor"}]}, {"substance": "Ac-^25I-S-R-R-L-I-D-R-T-N-A-N-F-L^38 (Ac-ISRRLIDRTNANFL) [GP2]", "values": [{"measurement": "stimulatory (mitogenic) effect, thymidine uptake", "setting": "Swiss 3T3.A31", "result": "low stimulatory effect"}]}, {"substance": "Ac-^25I-S-R-R-L-I-D-R-T-N-A-N-F-L^38-(G-G-G-G-G-G)-^73R-K-I-E-I-V-R-K-K^81-C [GP14]", "values": [{"measurement": "inhibition of labelled PDGF binding to human smooth muscle cells", "setting": "[2]", "result": "potent inhibitors"}]}, {"substance": "PDGF: 28-31 KD dimeric, highly basic glycoprotein, mitogen for connective tissue cells", "values": [{"measurement": "SMC migration from the media to the intima", "setting": "[3]", "result": 20, "unit": "fold"}, {"measurement": "SMC proliferation in the media", "setting": "[3]", "result": "2-3 fold"}, {"measurement": "healing of large bed sores", "setting": "large bed sores", "result": "stimulates the healing of large bed sores"}]}, {"substance": "Ac-^25I-S-R-R-L-I-D-R-T-N-A-N-F-L-V-W-P-P-C^43-(SMCC)-^73R-K-I-E-I-V-R-K-K^81-C (Ac-ISRRLIDRTNANFLVWPPC(SMCC)RKIEIVRKKC; also: SMCC joins Cys43 (pos 19) to Arg73 (pos 20) in place of a peptide bond) [GP20]", "values": [{"measurement": "inhibition of labelled PDGF binding to human smooth muscle cells", "setting": "[2]", "result": "potent inhibitors"}]}, {"substance": "AC-^73R-K-I-E-I-V-R-K-K^81-C (Ac-RKIEIVRKKC) [GP8]", "values": [{"measurement": "antibodies to the corresponding immunising peptide by ELISA", "setting": "[1]", "result": "high titre antibodies"}, {"measurement": "inhibition of binding of radiolabelled PDGF-BB to 3T3 cells", "setting": "3T3 cells", "result": "modest inhibition"}, {"measurement": "stimulatory (mitogenic) effect, thymidine uptake", "setting": "Swiss 3T3.A31", "result": "not as stimulatory as GP4"}]}]}
